Results on 40 substances are retold here after US11840686B2, “Modulation of prekallikrein (PKK) expression” (Ionis Pharmaceuticals, Inc., priority 2013, dated 2023).

The test system of this series is human PKK mRNA. In words: Antisense inhibition of human PKK mRNA in HepaRG cells, 5,000 nM (Example 2). The class given is cell-based. Summed up:
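Percent inhibition of PKK mRNA is reported relative to untreated cells, after adjustment for total RNA by RIBOGREEN. Gapmers of 16–20 nucleosides with 2′-MOE wings were delivered at 5,000 nM by electroporation into HepaRG cells and left for roughly 24 hours before RNA isolation.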

The mark [1] stands for this setting: Table 9 experiment, HepaRG cells, 20,000 cells per well, electroporation with 5,000 nM antisense oligonucleotide, approx. 24 hours, PKK mRNA by RT-PCR (RTS3454), relative to untreated control cells.
[2] abbreviates: Table 10 experiment, HepaRG cells, 20,000 cells per well, electroporation with 5,000 nM antisense oligonucleotide, approx. 24 hours, PKK mRNA by RT-PCR (RTS3454), relative to untreated control cells.
[3] abbreviates: Table 7, HepaRG cells, electroporation with 5,000 nM antisense oligonucleotide, approx. 24 hours, PKK mRNA by RT-PCR (RTS3454), relative to untreated control cells.
Setting [4] is: HepaRG cells, electroporation with 5,000 nM antisense oligonucleotide, approximately 24 hours, PKK mRNA by RT-PCR (RTS3454), relative to untreated control cells, Table 6 experiment.
The mark [5] stands for this setting: HepaRG cells, 5,000 nM antisense oligonucleotide, 5-10-5 gapmers, Table 16.
The mark [6] stands for this setting: human PKK mRNA, HepaRG cells, 5-10-5 motif oligonucleotides targeting SEQ ID NO: 1 and 10.
[7] abbreviates: HepaRG cells, 5,000 nM antisense oligonucleotide, human PKK mRNA, Table 18.
Setting [8] is: human PKK mRNA, HepaRG cells, 5,000 nM antisense oligonucleotide, Table 18.
Setting [9] is: HepaRG cells, electroporation, 5,000 nM antisense oligonucleotide, approx. 24 hours, primer probe set RTS3454, relative to untreated control cells, Table 11.
[10] abbreviates: HepaRG cells, electroporation, 5,000 nM antisense oligonucleotide, approx. 24 hours, primer probe set RTS3454, relative to untreated control cells, Table 12.
Where [11] appears, read: Table 13, human PKK mRNA in HepaRG cells, 5-10-5 gapmers.
Setting [12] is: Table 8, HepaRG cells, electroporation with 5,000 nM antisense oligonucleotide, approx. 24 hours, PKK mRNA by RT-PCR (RTS3454), relative to untreated control cells.
Where [13] appears, read: HepaRG cells, electroporation with 5,000 nM antisense oligonucleotide, approximately 24 hours, PKK mRNA by RT-PCR (RTS3454), relative to untreated control cells, Table 5 experiment.
Setting [14] is: HepaRG cells, 5,000 nM antisense oligonucleotide, 5-10-5 gapmers, Table 17.

Strand notation (5' to 3'): a small letter for the sugar, then the base; units joined by * are phosphorothioate-linked, units joined directly phosphodiester-linked; [ ] holds rarer units or linkages, { } end groups; capitals alone tell only the bases. e = 2'-O-(2-methoxyethyl) (MOE); [5mC] = 5-methylcytosine; d = 2'-deoxy (DNA)

A word on the % inhibition: it is the drop in the measured response relative to a control, in per cent. Read a high % inhibition as a strong effect. As for “547477 (antisense eT*e[5mC]*eT*eT*e[5mC]*dA*dT*dT*dT*dG*dT*dT*dA*d[5mC]*d[5mC]*eA*eA*eA*eG*eG) [compound 547477]”, the “% inhibition” value is reported as 74% under setting [1] and 68% under setting [2].
Consider “547623 (antisense eT*eG*eT*e[5mC]*eA*d[5mC]*dT*dG*dT*dA*d[5mC]*d[5mC]*dT*dA*dT*eA*eA*e[5mC]*eT*e[5mC]) [compound 547623]”, for which the “% inhibition” value (human PKK mRNA in HepaRG cells, 5-10-5 gapmers, Table 14) was 81%.
As for “547466 (antisense eG*eT*eA*eT*eA*dA*dA*dT*dT*dG*dT*dG*d[5mC]*dT*dT*eG*eT*eG*eT*e[5mC]) [compound 547466]”, the “% inhibition” value runs as follows: under setting [1], 82%; under setting [2], 43%.
Regarding “546240 (eG*eT*eA*eA*eA*dG*dT*dT*d[5mC]*dT*dT*dT*dT*dG*d[5mC]*eA*eG*eG*eT*eT; antisense) [compound 546240]”, the “% inhibition” value under setting [3] came out at 23%.
For the substance “547343 (antisense e[5mC]*eA*e[5mC]*eA*eT*dT*dA*dA*dA*dA*dT*dT*dG*dA*d[5mC]*eT*e[5mC]*e[5mC]*eT*e[5mC]) [compound 547343]”, under setting [4], the “% inhibition” value came out at 78%.
In the case of “547698 (antisense eA*e[5mC]*e[5mC]*eT*eA*dT*dA*dA*d[5mC]*dT*dA*dT*dA*dA*d[5mC]*eA*eA*eT*eA*eT) [compound 547698]”, under setting [5], the “% inhibition” value is recorded as 0%.
In the case of “547320 (antisense eA*eG*eG*eA*eA*dT*dG*dT*d[5mC]*d[5mC]*dA*dG*dA*dA*dA*e[5mC]*eT*eG*e[5mC]*eA) [compound 547320]”, under setting [4], the “% inhibition” value is 73%.
In the case of “547659 (eA*e[5mC]*eT*eA*eT*dA*dA*d[5mC]*dA*dG*dT*dA*dT*d[5mC]*dA*e[5mC]*e[5mC]*eG*eT*eA; antisense) [compound 547659]”, the “% inhibition” value under setting [6] is listed as 80%.
Regarding “548714 (DNA eT*e[5mC]*eA*d[5mC]*dT*dG*dT*dA*d[5mC]*dT*dA*dG*dT*eT*eT*e[5mC]; antisense) [compound 548714]”, the “% inhibition” value under setting [7] was 15%.
For “546917 (eA*eT*e[5mC]*eA*e[5mC]*dT*dG*dT*d[5mC]*d[5mC]*dT*dA*dT*dA*dA*e[5mC]*eT*eA*eT*eT; antisense) [compound 546917]”, the “% inhibition” value under setting [5] amounted to 63%.
As to “548740 (DNA eT*eG*eT*eA*d[5mC]*dT*dA*dG*dT*dT*dT*d[5mC]*d[5mC]*eT*eA*eT*eA; antisense) [compound 548740]”, the “% inhibition” value under setting [8] worked out at 0%.
“547528 (antisense e[5mC]*eA*e[5mC]*eA*eG*dT*d[5mC]*dA*dT*dG*dG*dA*dG*dA*dT*e[5mC]*eT*e[5mC]*eA*eG) [compound 547528]”: the “% inhibition” value under setting [9] is 78%.
Still for that read-out and setting: under “547491 (antisense e[5mC]*eA*eT*eG*eT*dA*d[5mC]*dT*d[5mC]*dA*dG*d[5mC]*dG*dA*d[5mC]*eT*eT*eT*eG*eG) [compound 547491]” stands 47%.
As to “547458 (antisense eT*eA*eT*e[5mC]*eA*dA*dG*dG*d[5mC]*dG*dA*dT*dA*dT*d[5mC]*eA*eT*eG*eA*eT) [compound 547458]”, the “% inhibition” value stood at 84% under setting [1] and 64% under setting [2].
As to “547706 (antisense eT*eG*e[5mC]*e[5mC]*eT*d[5mC]*d[5mC]*dT*dG*dG*d[5mC]*dA*dG*d[5mC]*d[5mC]*eT*eT*e[5mC]*eA*eA) [compound 547706]”, the “% inhibition” value under setting [5] turned out to be 73%.
With “547538 (antisense e[5mC]*e[5mC]*eA*eG*e[5mC]*dA*dG*dA*dA*dA*dT*d[5mC]*d[5mC]*dT*dG*eT*eG*e[5mC]*eA*eT) [compound 547538]”, the “% inhibition” value under setting [10] was 77%.
On to “547408 (eT*e[5mC]*eA*e[5mC]*eA*dT*dT*d[5mC]*dA*dA*dT*dT*d[5mC]*dT*dT*e[5mC]*eT*e[5mC]*e[5mC]*eT; antisense) [compound 547408]”, for which the “% inhibition” value under setting [3] came to 84%.
Take “546901 (eA*e[5mC]*eT*eG*eT*d[5mC]*d[5mC]*dT*dA*dT*dA*dA*d[5mC]*dT*dA*eT*eA*eA*e[5mC]*eA; antisense) [compound 546901]”: the “% inhibition” value under setting [6] is recorded as 56%.
As to “547534 (antisense eA*eT*e[5mC]*eT*eG*dA*d[5mC]*dT*dA*dG*dT*dG*dA*dA*dT*eG*eG*e[5mC]*eT*eT) [compound 547534]”, the “% inhibition” value under setting [10] stood at 72%.
Take “546500 (eT*eT*e[5mC]*e[5mC]*eA*dT*dG*d[5mC]*dA*dT*dA*d[5mC]*dT*d[5mC]*dG*e[5mC]*e[5mC]*eT*eT*eT; antisense) [compound 546500]”: under setting [10], the “% inhibition” value is on record as 46%.
“548781 (antisense eA*e[5mC]*e[5mC]*eT*dA*dT*dA*dA*d[5mC]*dT*dA*dT*dA*eA*e[5mC]*eA*eG) [compound 548781]”: the “% inhibition” value under setting [8] was determined as 0%.
Turning to “548765 (antisense eA*eT*eA*eT*d[5mC]*dA*d[5mC]*dT*dG*dT*d[5mC]*d[5mC]*dT*eA*eT*eA*eA) [compound 548765]”, the “% inhibition” value under setting [8] is listed as 0%.
For “546799 (eA*eT*eG*eA*eA*dG*dG*dG*d[5mC]*dG*dA*dG*dG*d[5mC]*dG*e[5mC]*eA*eG*eT*eG; antisense) [compound 546799]”, under setting [11], the “% inhibition” value is given as 5%.
Regarding “547446 (antisense eT*eT*eG*eT*eG*dA*dG*dA*dA*dA*dG*dG*dT*dG*dT*eA*eT*e[5mC]*eT*eT) [compound 547446]”, the “% inhibition” value under setting [12] is reported as 84%.
“546295 (antisense e[5mC]*e[5mC]*e[5mC]*eA*e[5mC]*dT*dG*dG*dT*dG*dT*d[5mC]*d[5mC]*dT*dA*eT*eG*eA*eG*eT) [compound 546295]”: the “% inhibition” value under setting [12] stood at 67%.
For “546230 (antisense eG*eT*eG*eT*eG*d[5mC]*d[5mC]*dA*d[5mC]*dT*dT*dT*d[5mC]*dA*dG*eA*eT*eG*eT*eT) [compound 546230]”, the “% inhibition” value under setting [3] turned out to be 70%.
With “547306 (antisense eA*eG*e[5mC]*eA*eA*d[5mC]*d[5mC]*dA*dA*dA*d[5mC]*d[5mC]*dT*dT*dT*eT*e[5mC]*eT*e[5mC]*e[5mC]) [compound 547306]”, the “% inhibition” value under setting [13] is 62%.
For “546529 (eG*e[5mC]*eA*e[5mC]*e[5mC]*dT*dG*dG*d[5mC]*dA*dG*dA*dA*d[5mC]*dA*eG*eT*eA*e[5mC]*e[5mC]; antisense) [compound 546529]”, the “% inhibition” value under setting [5] was 65%.
As to “548722 (DNA eA*e[5mC]*eT*dG*dT*dA*d[5mC]*dT*dA*dG*dT*dT*dT*e[5mC]*e[5mC]*eT*eA; antisense) [compound 548722]”, under setting [7], the “% inhibition” value is listed as 26%.
For “548755 (antisense eT*eA*eT*e[5mC]*dA*d[5mC]*dT*dG*dT*dA*d[5mC]*dT*dA*dG*eT*eT*eT*e[5mC]) [compound 548755]”, under setting [8], the “% inhibition” value is 20%.
As to “547638 (eA*eT*eA*eA*e[5mC]*dA*dG*dT*dA*dT*d[5mC]*dA*d[5mC]*dT*dG*eT*eA*e[5mC]*eT*eA; antisense) [compound 547638]”, under setting [6], the “% inhibition” value was 87%.
On to “547382 (e[5mC]*eT*eT*eT*eG*dT*dG*dA*d[5mC]*dT*d[5mC]*dG*dA*dT*dT*eT*eT*e[5mC]*e[5mC]*eA; antisense) [compound 547382]”, for which the “% inhibition” value under setting [3] is reported as 62%.
With “547556 (eG*e[5mC]*e[5mC]*eA*eT*dT*dT*dT*dA*dT*d[5mC]*d[5mC]*d[5mC]*dT*dG*eA*eG*eA*eT*eT; antisense) [compound 547556]”, the “% inhibition” value under setting [10] was 55%.
For the substance “546235 (eG*eG*e[5mC]*eT*eA*dT*dA*dT*d[5mC]*d[5mC]*dA*dG*dA*dT*dA*eT*eG*eG*eT*eG; antisense) [compound 546235]”, the “% inhibition” value under setting [3] was 77%.
For “547741 (eT*eA*eG*eG*eT*dG*dG*dT*dG*dG*dG*dA*dT*dT*dG*eG*eT*eG*eG*eT; antisense) [compound 547741]”, under setting [14], the “% inhibition” value is on record as 47%.
Regarding “546841 (e[5mC]*eA*e[5mC]*eT*eG*dT*d[5mC]*d[5mC]*dT*dA*dT*dA*dA*d[5mC]*dT*e[5mC]*eT*eA*eA*e[5mC]; antisense) [compound 546841]”, under setting [11], the “% inhibition” value was determined as 38%.
For “547269 (eA*eA*eT*eG*eA*dA*d[5mC]*dG*dG*dT*d[5mC]*dT*dT*d[5mC]*dA*eA*eG*e[5mC]*eT*eG; antisense) [compound 547269]”, under setting [13], the “% inhibition” value is listed as 56%.
Consider “547742 (eA*eT*e[5mC]*eG*eG*dT*dG*dG*dT*dG*dG*dG*dA*dT*dT*eG*eG*eT*e[5mC]*eG; antisense) [compound 547742]”, for which, under setting [14], the “% inhibition” value came out at 57%.
As for “547289 (antisense eT*eT*e[5mC]*eA*eT*dA*dG*dA*dG*dT*dT*dG*dA*dG*dT*e[5mC]*eA*eG*eA*e[5mC]) [compound 547289]”, the “% inhibition” value under setting [13] amounted to 74%.
Regarding “546186 (antisense eA*eT*eG*eT*e[5mC]*dT*d[5mC]*dG*dA*dT*dG*dG*d[5mC]*dA*dA*eG*e[5mC]*eA*e[5mC]*eT) [compound 546186]”, the “% inhibition” value under setting [4] amounted to 84%.
